In patent US9416128B2, “Fused heterocyclic compounds as ion channel modulators” (Gilead Sciences, Inc., priority 2013, dated 2016):

What was measured:
[1] = target: wild-type human cardiac sodium channel, hNaV 1.5 (Late INa) (Homo sapiens, UniProt Q14524); experiment: Late INa screening assay (whole cell patch clamp, QPatch, Tefluthrin-induced late current); assay type: cell-based; conditions: HEK293, % inhibition (percent block of late INa) at 1 uM; HEK293 hNaV1.5; 10 μM Tefluthrin; read-out: Nav1.5 Late INa 1 uM
Protocol: The cardiac late sodium current (Late INa) and peak sodium current (Peak INa) assays are performed on an automated electrophysiology platform, QPatch 16X or QPatch HT (Sophion Bioscience, Copenhagen, Denmark) using the whole cell patch clamp technique to measure currents through the cell membrane. The assay uses an HEK293 (human embryonic kidney) cell line heterologously expressing the wild-type human cardiac sodium channel, hNaV 1.5, purchased from Millipore (Billerica, Mass.). No beta subunits were coexpressed with the Na channel alpha subunit. Cells are maintained with standard tissue culture procedures and stable channel expression is maintained with 400 μg/mL Geneticin in the culture medium. Experiments are carried out at 23-25° C.
For both the Late INa and Peak INa assays, series resistance compensation is set to 100% and series resistance and whole-cell compensation are performed automatically. Currents are digitized at 25 kHz and low-pass filtered at 5 kHz and stored in the Sophion Bioscience Oracle database (Sophion Bioscience, Copenhagen, Denmark). Analysis is performed using QPatch Assay software and data are compiled in Excel 2010 (Microsoft, Seattle, Wash., U.S.A.).
Compound stocks are routinely made by the Gilead Sample Bank in vials to 10 mM in dimethyl sulfoxide (DMSO). In some cases, when compounds are not soluble in DMSO, they are made in 100% ethanol. Stocks are sonicated as necessary. The extracellular solution for screening Late INa is composed of: 140 mM NaCl, 4 mM KCl, 1.8 mM CaCl2, 1 mM MgCl2, 10 mM HEPES and 10 mM Dextrose with pH adjusted to 7.35 using NaOH. The intracellular solution contains: 105 mM CsF, 20 mM CsCl, 10 NaF, 2 mM EGTA, 10 mM HEPES and 10 mM Dextrose with pH adjusted to 7.35 with CsOH. Compounds are diluted in extracellular solution using a MicroLab Nimbus (Hamilton Robotics, Reno, Nev.) to between 0.3 and 3 μM in glass vials and transferred to glass well plates before robotic addition to the cells. The 0 mM Na extracellular solution (0Na-ECF) used at the end of each experiment for the Late INa and Peak INa assays to measure baseline current contains: 140 Choline-Cl; 4 mM KCl, 1.8 mM CaCl2; 1 mM MgCl2; 10 mM HEPES and 10 mM Dextrose with pH was adjusted to 7.35 with CsOH.
For the Late INa assay, sodium channels are activated every 10 seconds (0.1 Hz) by depolarizing the cell membrane to −20 mV for 250 milliseconds (ms) from a holding potential of −120 mV.
Compounds were tested to determine their activity in blocking the late sodium current. Late INa was generated by adding 10 μM Tefluthrin (pyrethroid) to the extracellular solution. For the purposes of the screening, Late INa is defined as the mean current between 240 ms and 265 ms during the voltage step to −20 mV. After establishing the whole cell recording configuration, Late INa activator is added to each well 4 times over a 15 minute period so that the late component of the Na current reaches a stable value. Compounds were then added (typically at 0.3 or 1 μM), in the presence of the Late INa activator, with 3 additions over the course of 5 minutes. Measurements were made at the end of exposure to the third compound addition and values were normalized to the current level when all Na^+ was removed from the extracellular solution after two additions of 0Na-ECF.
Results are reported as percent block of late INa and results were analyzed by incorporating rundown correction for the Late INa.

hNaV1.1 (SCN1A) = hNaV1.1 (SCN1A) (Homo sapiens, UniProt P35498); experiment: Use-dependent inhibition of the CNS NaV1.1 sodium channel; assay type: cell-based; conditions: % inhibition, 25 Hz; for inhibition at 1 µM: use-dependent block at 1 uM, read-out: Nav1.1 UDB 25 Hz 1 uM; for inhibition at 10 µM: use-dependent block at 10 uM, read-out: Nav1.1 UDB 25 Hz 10 uM
Protocol: HEK-293 cells stably expressing wild-type (WT) hNaV1.1 (SCN1A, NCBI# AB09354) were obtained from Millipore (Cat. # CYL3009) were used to record INa. Cells are maintained with standard tissue culture procedures and stable channel expression is maintained with 400 ug/mL G418 in the culture medium. Unless otherwise noted, all reagents are purchased from Sigma-Aldrich (St Louis, Mo., U.S.A.).
Assays measuring Use-Dependent Block (UDB) of NaV1.2 are performed on an automated electrophysiology platform, QPatch 16X or QPatch HT (Sophion Bioscience, Copenhagen, Denmark), using the whole cell patch clamp technique to measure currents through the cell membrane. Series resistance compensation is set to 100% and series resistance and whole-cell compensation are performed automatically. Currents stored in the Sophion Bioscience Oracle database (Sophion Bioscience, Copenhagen, Denmark). Analysis is performed using QPatch Assay software and data are compiled in Excel 2010 (Microsoft, Seattle, Wash., U.S.A.).
The internal (pipette) solution consists of (in mM) 105 CsF, 10 NaF, 20 CsCl, 2 EGTA, 10 HEPES, 10 Dextrose with a pH of 7.35 and osmolarity of 300 mOsmol/kg. The external (bath) solution contains in (mM): 145 NaCl, 4 KCl, 1.8 CaCl2, 1 MgCl2, 10 dextrose, 10 HEPES, with a pH of 7.35 and osmolarity of 310 mOsmol/kg. Experiments are carried out at 23-25° C.
Compound stocks are routinely made by the Gilead Sample Bank in vials to 10 mM in dimethyl sulfoxide (DMSO). In some cases, when compounds are not soluble in DMSO, they are made in 100% ethanol. Stocks are sonicated as necessary. […]
Cells are allowed to stabilize for 10 min after establishment of the whole-cell configuration before current is measured. The test compound is applied 2 times at 60 second intervals. After the second compound addition, a 200 second wait period was imposed to allow for equilibration.
Leak currents are subtracted by using an online P/4 procedure and all currents are low-pass Bessel filtered at 5 kHz and digitized at […].
Use-dependent block of NaV1.2 peak current is measured during pulse number 20 of a voltage pulse train (0 mV, 20 ms, 20 pulses, 25 Hz) from a holding potential of −120 mV. Currents are normalized to the peak current recorded in response to the first pulse in each frequency train. The voltage protocol for UDB was performed in the absence and presence of compound and percentage inhibition was calculated with respect to the compound free condition. Results are presented as mean percentage inhibition and data analysis is performed using QPatch Assay Software 4.0, and Excel 2002 (Microsoft, Seattle, Wash., U.S.A.).

wild-type human cardiac sodium channel, hNaV 1.5 (Late INa), sequence (Q14524 whole entry): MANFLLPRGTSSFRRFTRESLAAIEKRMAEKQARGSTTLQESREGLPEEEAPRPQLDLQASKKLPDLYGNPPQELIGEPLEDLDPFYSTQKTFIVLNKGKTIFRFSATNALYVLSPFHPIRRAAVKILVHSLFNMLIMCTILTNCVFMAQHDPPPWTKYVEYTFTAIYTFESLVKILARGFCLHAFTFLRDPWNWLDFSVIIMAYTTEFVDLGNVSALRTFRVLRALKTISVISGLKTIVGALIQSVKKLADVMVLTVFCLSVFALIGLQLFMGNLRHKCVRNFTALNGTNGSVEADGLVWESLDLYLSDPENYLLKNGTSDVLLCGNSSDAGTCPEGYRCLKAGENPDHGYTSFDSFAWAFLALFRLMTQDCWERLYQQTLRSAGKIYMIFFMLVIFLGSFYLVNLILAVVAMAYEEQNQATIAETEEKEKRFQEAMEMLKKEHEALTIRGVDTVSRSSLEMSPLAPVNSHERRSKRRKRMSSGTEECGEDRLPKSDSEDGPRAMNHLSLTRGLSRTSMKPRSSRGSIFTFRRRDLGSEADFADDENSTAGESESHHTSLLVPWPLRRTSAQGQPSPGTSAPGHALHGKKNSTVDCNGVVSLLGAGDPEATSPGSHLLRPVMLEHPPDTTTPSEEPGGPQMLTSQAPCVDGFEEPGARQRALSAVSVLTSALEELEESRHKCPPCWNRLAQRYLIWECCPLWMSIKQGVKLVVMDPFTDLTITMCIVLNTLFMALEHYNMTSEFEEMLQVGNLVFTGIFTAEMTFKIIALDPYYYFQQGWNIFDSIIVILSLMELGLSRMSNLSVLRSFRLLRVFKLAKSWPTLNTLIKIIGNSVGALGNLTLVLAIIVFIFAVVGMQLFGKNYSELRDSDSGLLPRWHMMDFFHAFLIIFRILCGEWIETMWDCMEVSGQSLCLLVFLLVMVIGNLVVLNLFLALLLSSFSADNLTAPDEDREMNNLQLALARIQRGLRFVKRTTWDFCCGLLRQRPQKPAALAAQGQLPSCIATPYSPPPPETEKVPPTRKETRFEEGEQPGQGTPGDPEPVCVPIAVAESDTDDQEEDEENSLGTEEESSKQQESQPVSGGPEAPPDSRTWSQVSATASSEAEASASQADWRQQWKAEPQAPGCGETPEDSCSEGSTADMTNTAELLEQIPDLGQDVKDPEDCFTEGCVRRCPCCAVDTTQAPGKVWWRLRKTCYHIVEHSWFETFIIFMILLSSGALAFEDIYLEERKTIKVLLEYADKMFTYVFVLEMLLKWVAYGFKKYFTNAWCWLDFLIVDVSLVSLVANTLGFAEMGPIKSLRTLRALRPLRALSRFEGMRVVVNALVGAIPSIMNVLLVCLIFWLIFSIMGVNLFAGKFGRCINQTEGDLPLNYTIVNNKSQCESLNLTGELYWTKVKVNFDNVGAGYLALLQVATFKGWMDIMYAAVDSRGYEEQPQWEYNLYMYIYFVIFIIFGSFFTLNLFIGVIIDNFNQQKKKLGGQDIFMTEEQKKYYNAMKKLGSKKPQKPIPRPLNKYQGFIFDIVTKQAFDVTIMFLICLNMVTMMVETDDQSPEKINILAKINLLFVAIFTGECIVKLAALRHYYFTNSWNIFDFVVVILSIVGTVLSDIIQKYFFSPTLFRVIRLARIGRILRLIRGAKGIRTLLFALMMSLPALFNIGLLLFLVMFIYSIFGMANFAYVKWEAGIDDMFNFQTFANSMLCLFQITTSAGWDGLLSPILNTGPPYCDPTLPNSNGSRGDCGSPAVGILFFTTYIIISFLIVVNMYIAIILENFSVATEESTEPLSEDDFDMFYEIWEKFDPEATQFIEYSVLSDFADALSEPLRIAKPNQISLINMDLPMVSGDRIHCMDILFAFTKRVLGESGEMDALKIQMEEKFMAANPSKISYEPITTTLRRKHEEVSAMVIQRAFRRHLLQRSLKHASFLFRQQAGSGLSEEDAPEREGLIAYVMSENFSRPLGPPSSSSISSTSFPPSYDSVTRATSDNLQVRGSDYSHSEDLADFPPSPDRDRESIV

SMILES | inhibition at 1 µM (hNaV1.1 (SCN1A)) [%] | inhibition at 10 µM (hNaV1.1 (SCN1A)) [%] | inhibition at 1 µM [1] [%]
Cc1nccc(CN2Cc3cc(-c4ccc(OC(F)(F)F)cc4)ccc3OC2=O)n1 [Example 15, 3-((2-methylpyrimidin-4-yl)methyl)-6-(4-(trifluoromethoxy)phenyl)-3,4-dihydro-2H-benzo[e][1,3]oxazin-2-one] |  |  | 30
CC1c2cc(-c3cccc(Oc4ccccc4)c3)ccc2OC(=O)N1Cc1ncccn1 (stereo not drawn) [Example 51, 4-methyl-6-(3-phenoxyphenyl)-3-(pyrimidin-2-ylmethyl)-3,4-dihydro-2H-benzo[e][1,3]oxazin-2-one] |  |  | 41.6
O=C1Oc2cc3c(cc2CN1Cc1ncccn1)-c1ccc(OC(F)(F)F)cc1C3 [Example 60, 3-(pyrimidin-2-ylmethyl)-8-(trifluoromethoxy)-3,4-dihydrofluoreno[3,2-e][1,3]oxazin-2(10H)-one] |  |  | 11.2

Second part, led by results:

inhibition at 1 µM (hNaV1.1 (SCN1A)) [%] | inhibition at 10 µM (hNaV1.1 (SCN1A)) [%] | SMILES | inhibition at 1 µM [1] [%]
42.6 | 91.6 | O=C1Oc2ccc(-c3ccc(OC(F)(F)F)cc3)cc2CN1Cc1ncccn1 [Example 3, 3-(pyrimidin-2-ylmethyl)-6-(4-(trifluoromethoxy)phenyl)-3,4-dihydro-2H-benzo[e][1,3]oxazin-2-one] | 51.8
49.9 | 76.5 | O=C1Oc2ccc(-c3ccc(C(F)(F)F)cc3)cc2CN1Cc1ncccn1 [Example 4, 3-(pyrimidin-2-ylmethyl)-6-(4-(trifluoromethyl)phenyl)-3,4-dihydro-2H-benzo[e][1,3]oxazin-2-one] | 53.9
21.5 | 82.4 | CC1c2cc(-c3ccc(C(F)(F)F)cc3)ccc2OC(=O)N1Cc1ncccn1 (stereo not drawn) [Example 49, 4-methyl-3-(pyrimidin-2-ylmethyl)-6-(4-(trifluoromethyl)phenyl)-3,4-dihydro-2H-benzo[e][1,3]oxazin-2-one] | 41.5
